The values that follow come from ChEMBL document CHEMBL1153159, “Oxime derivatives related to AP18: Agonists and antagonists of the TRPA1 receptor” (Bioorg Med Chem Lett, 2010).

The EC50 is the concentration that produces a half-maximal response. As usually defined, the KB is the affinity of an antagonist, worked out from how it opposes an agonist. As a reminder, the IC50 is the point on the concentration scale where inhibition reaches its midpoint.

Holding throughout (format): functional, cell-based
Experiment [1] deals with T1, Transient receptor potential cation channel subfamily A member 1 (Homo sapiens, UniProt O75762). The experiment is described as follows: Agonist activity at human TRPA1 expressed in HEK293 cells assessed as [45]Ca2+ influx by microbeta plate count.
T1 sequence (O75762 whole entry): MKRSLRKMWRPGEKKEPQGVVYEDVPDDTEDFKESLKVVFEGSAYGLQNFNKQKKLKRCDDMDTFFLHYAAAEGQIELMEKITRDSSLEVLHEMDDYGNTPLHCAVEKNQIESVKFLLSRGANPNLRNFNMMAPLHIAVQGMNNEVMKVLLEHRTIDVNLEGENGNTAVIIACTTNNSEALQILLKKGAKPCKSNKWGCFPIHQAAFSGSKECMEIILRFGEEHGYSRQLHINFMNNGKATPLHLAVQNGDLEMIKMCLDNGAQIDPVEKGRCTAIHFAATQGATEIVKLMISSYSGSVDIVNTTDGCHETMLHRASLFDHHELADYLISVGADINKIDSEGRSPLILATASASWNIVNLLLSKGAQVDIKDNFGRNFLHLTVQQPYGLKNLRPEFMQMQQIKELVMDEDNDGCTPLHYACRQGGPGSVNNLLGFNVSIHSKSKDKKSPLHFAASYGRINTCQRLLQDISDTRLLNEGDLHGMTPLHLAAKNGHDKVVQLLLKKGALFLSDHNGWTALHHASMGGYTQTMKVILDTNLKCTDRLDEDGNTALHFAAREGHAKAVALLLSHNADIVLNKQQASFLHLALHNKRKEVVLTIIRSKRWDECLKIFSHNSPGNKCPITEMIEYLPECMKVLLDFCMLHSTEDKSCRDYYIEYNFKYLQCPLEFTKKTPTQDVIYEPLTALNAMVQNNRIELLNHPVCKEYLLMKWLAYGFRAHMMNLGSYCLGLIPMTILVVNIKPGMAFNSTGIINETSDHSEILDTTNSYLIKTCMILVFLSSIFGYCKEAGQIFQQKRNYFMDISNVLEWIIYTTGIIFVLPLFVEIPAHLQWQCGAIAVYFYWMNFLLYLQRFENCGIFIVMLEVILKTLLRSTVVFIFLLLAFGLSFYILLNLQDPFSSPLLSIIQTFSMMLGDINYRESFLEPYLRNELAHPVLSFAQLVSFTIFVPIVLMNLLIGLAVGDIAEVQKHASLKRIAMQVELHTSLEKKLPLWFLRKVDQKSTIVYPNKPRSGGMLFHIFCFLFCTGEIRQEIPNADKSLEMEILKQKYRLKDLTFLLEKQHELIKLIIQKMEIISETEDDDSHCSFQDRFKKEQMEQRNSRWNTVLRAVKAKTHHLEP
In experiment [2] the target is T1, Transient receptor potential cation channel subfamily A member 1. Briefly: Agonist activity at human TRPA1 expressed in HEK293 cells assessed as [45]Ca2+ influx by microbeta plate count relative to cinnamaldehyde.
For experiment [3] the target is unchanged. Briefly: Antagonist activity at human TRPA1 expressed in HEK293 cells assessed as inhibition of cinnamaldehyde-induced [45]Ca2+ influx by microbeta plate count.
Experiment [4] shares this target. Briefly: Antagonist activity at human TRPA1 expressed in HEK293 cells assessed as [45]Ca2+ influx by microbeta plate count.

The structures appear in SMILES notation.

Take `CC(/C=C/c1ccccc1)=N\O`: the EC50 in experiment [1] stood at 96.6 µM. Besides, the Efficacy in experiment [2] is 0.27.
For `CC(=C\c1cccc(C)c1)/C(C)=N/O` the same measures were 14.4 µM and 0.84.
As to `CC(/C=C/c1ccc2c(c1)OCO2)=N\O`, in experiment [1], the EC50 was 11.5 µM. The Efficacy in experiment [2] is 0.54.
With `CC(/C=N/O)=C\c1ccc(C(C)(C)C)cc1`, in experiment [2], the Efficacy came to 0.15.
Still for that read-out and setting: as for `CC(/C=C/c1cccc(Cl)c1)=N/O`, the figure is 0.21; as for `O/N=C/C=C/c1ccccc1`, 0; as for `CC(=C\c1ccccc1Cl)/C(C)=N/O`, 0.
As for `CC(=C\c1ccc(Cl)cc1)/C(C)=N/O` [AP18 5], in experiment [3], the KB turned out to be 1.26 µM. Besides, the Efficacy in experiment [2] worked out at 0. Further, the IC50 in experiment [4] was 2.8 µM.
Turning to `CN(C)c1ccc(/C=C/C=N/O)cc1`, the EC50 in experiment [1] turned out to be 15.9 µM. In experiment [2], the Efficacy was 0.87.
The corresponding values for `COc1ccc(/C=C(C)/C(C)=N/O)cc1` are 46.1 µM and 0.23.
For `O/N=C\C=C\c1ccc(Cl)cc1` the same measures were 9.4 µM and 0.85.
For `CC(/C=N/O)=C\c1ccccc1` the same measures were 69.4 µM and 0.18.
Consider `CC(/C=C/c1ccc(Cl)cc1)=N\O`, for which, in experiment [1], the EC50 stood at 27.6 µM. In addition, the Efficacy in experiment [2] came out at 0.66.
The corresponding values for `CC(/C=C/c1cccc(Cl)c1)=N\O` are 63.1 µM and 0.85.
Consider `CC(=C\c1cccc([N+](=O)[O-])c1)/C(C)=N/O`, for which, in experiment [2], the Efficacy was found to be 0.
Consider `O=C/C=C/c1ccccc1` [CINNAMALDEHYDE], for which the EC50 in experiment [1] was found to be 51.4 µM.
Consider `CC(=C\c1ccccc1)/C(C)=N/O`, for which, in experiment [3], the KB was determined as 1.91 µM. Besides, in experiment [2], the Efficacy came to 0. For the same compound, the concentration for half-maximal inhibition (IC50) in experiment [4] is 2.7 µM.
For the compound `O/N=C/C=C/c1ccc(Cl)cc1`, in experiment [2], the Efficacy came to 0.46.
Still for that read-out and setting: as for `O/N=C/C=C/c1ccc(C(F)(F)F)cc1`, the figure is 0.13; as for `NC(/C=C/c1cc(C(F)(F)F)cc(C(F)(F)F)c1)=N\O`, less than 0.1.
